{"source": "patent US20100092574A1", "about": "“SYNERGISTIC PEROXIDE BASED BIOCIDAL COMPOSITIONS” (priority 2008, published 2010)", "key": {"Pseudomonas aeruginosa": {"tested_on": "Pseudomonas aeruginosa", "experiment": "Bactericidal efficacy of sulfite and hydrogen peroxide solutions in the absence of pulp", "assay_type": "cell-based", "details": "for reduction: 50 ppm hydrogen peroxide, 3 h", "text": "(§1) The expression “1 g cfu/mL” denotes the common (decadic) logarithm of the number of colony-forming units per milliliter or, in connection with the term “reduction”, the common logarithm of the quotient of the number of colony-forming units per milliliter before treatment and the number of colony-forming units after treatment. Unless otherwise indicated all concentrations in percent or ppm are expressed on a weight basis.\nThe bactericidal efficacy of solutions containing sulfite and hydrogen peroxide was further investigated in the absence of pulp. Efficacy was measured against Pseudomonas aeruginosa grown in nutrient in the presence of 83 and 830 ppm sulfite. The sulfite-containing P. aeruginosa inoculum was then diluted 1:99 with Butterfield's buffer at pH 7.0. The sulfite concentrations in Table 5 below are the those in the final dilution. The dilutions were then contacted with 50 ppm hydrogen peroxide for 3 h at 37° C."}, "[1]": {"tested_on": "microbial population of sulfite bleached pulp slurry (total aerobic counts)", "experiment": "Biocidal performance in sulfite bleached pulp slurry, total aerobic counts (tryptone soy agar plating)", "assay_type": "cell-based", "details": "for 3 h Reduction: 3 h contact; for 24 h Reduction: 24 h contact", "text": "as §1\nSynergistic biocidal performance upon co-application of sulfite with hydrogen peroxide at elevated pH was investigated. The sulfite and peroxide concentrations indicated in Table 3 below were added to an aqueous solution made from: (a) deionized water, (b) NaHCO3 to achieve a carbonate buffer concentration of 200 ppm (as CaCO3 total alkalinity), (c) sulfite bleached pulp slurry to achieve a final consistency of 0.05%, carrying an associated minimal concentration of residual sulfite of 6 ppm, and (d) NaOH to achieve a pH of 9.0.\nThe microbial population was that provided by preparing the pulp slurry 24-48 h prior to testing and storing at room temperature, thus allowing microbial growth to a high test level. […] Populations reported are total aerobic counts using tryptone soy agar plating.\nSI=(level of A)/(efficacious level of A)+(level of B)/(efficacious level of B) (3)\nSynergy upon co-application of sulfite with hydrogen peroxide at higher concentrations of sulfite and hydrogen peroxide was investigated. The conditions were the same as in Example 3."}, "[2]": {"experiment": "Residual sulfite and hydrogen peroxide content after mixing (co-stability)", "assay_type": "physicochemical", "procedure": "Aqueous solutions containing sodium sulfite and hydrogen peroxide were mixed at 21° C. to obtain a solution having a sulfite content (as SO3^2−) of 40 ppm, a hydrogen peroxide content of 20.0 ppm and a pH of 6.7. The temperature of the solution was maintained at 21° C. and the residual sulfite and peroxide content was determined at 15, 30 and 60 minutes after mixing. The procedure consisted of adding a known amount of 1-chloro-5,5-dimethylhydantoin (MCDMH) to the samples in excess of the estimated residual sulfite content. The remaining MCDMH concentration was then measured by standard DPD total halogen methodologies. As sulfite rapidly neutralizes MCDMH at all pHs the sulfite concentration is the concentration of MCDMH added less the concentration of MCDMH measured, see Equation 1 below.\n[Sulfite]=[MCDMHadded]−[MCDMHmeasured] (1)\nThe H2O2 concentration was determined by recording the concentration of H2O2 measured using acidic thiosulfate titration with KI indicator (HACH HYP-1 hydrogen peroxide test kit—Hach Co., Loveland, Colo.). Since this titration is run at acidic pH, this method yields the concentration of H2O2 in excess of the sulfite concentration contained in the sample. As the sulfite concentration is known from the MCMDH analysis and Equation 1, the H2O2 concentration can be calculated using the following Equation 2:\n[H2O2]=[H2O2 measured]+[Sulfitecalculated] (2)\nThe estimated error in the methodology is ±1 ppm\nThe procedure of Example 1 was repeated with the difference that the pH of the mixed solution was 9.0 and the residual concentrations were determined 5, 15, 30, 60, 120 and 1080 minutes after mixing."}, "[3]": {"experiment": "Stability of active halogen species in the presence of residual H2O2", "assay_type": "physicochemical", "procedure": "The stability of nitrogen-bound active halogen species in the presence of residual H2O2 was investigated. Free and total chlorine concentrations were measured by standard DPD methodology and the total H2O2 concentration by acidic […] titration. The concentration of MCDMH is the concentration of the total active halogen less the concentration of free active halogen. The concentration of H2O2 is the total oxidant concentration less the MCDMH concentration. […] The indicated reaction is shown in Equation 6.\nThe effect of the addition of a molar equivalent of 5,5-dimethylhydantoin (DMH) to NaOCl solutions prior to combination with hydrogen peroxide was investigated. The concentration of MCDMH is the concentration of the total active halogen less the concentration of free active halogen. The concentration of H2O2 is the total oxidant concentration less the MCDMH concentration."}, "[4]": {"details": "Example 3, hydrogen peroxide alone (40-160 ppm per Table 3)"}, "[5]": {"details": "Example 4, hydrogen peroxide alone at 120-160 ppm"}, "[6]": {"details": "Table 3 Test No. 4: sulfite 0 ppm, peroxide 40 ppm, pH 9.0"}, "[7]": {"details": "Table 3 Test No. 5: sulfite 0 ppm, peroxide 160 ppm, pH 9.0"}, "[8]": {"details": "Table 4 Test No. 4: sulfite 0 ppm, peroxide 120 ppm"}, "[9]": {"details": "Table 4 Test No. 5: sulfite 0 ppm, peroxide 150 ppm"}, "[10]": {"details": "Table 4 Test No. 6: sulfite 0 ppm, peroxide 160 ppm"}}}
{"smiles": "OO", "note": "[hydrogen peroxide]", "values": [{"measurement": "reduction", "setting": "Pseudomonas aeruginosa; P. aeruginosa grown up in 830 ppm sulfite diluted to 8.3 ppm during application", "value": "1.5 1 g cfu/mL"}, {"measurement": "reduction", "setting": "Pseudomonas aeruginosa; P. aeruginosa grown up in the absence of sulfite", "value": "0.9 1 g cfu/mL"}, {"measurement": "3 h Reduction", "setting": "Pseudomonas aeruginosa; Table 5 Test No. 4: sulfite 0 ppm, peroxide 50 ppm, pH 7.0, 3 h at 37° C.", "value": 0.9, "unit": "lg cfu/mL"}, {"measurement": "reduction in 3 h", "setting": "[1]; [4]", "value": "1.2-3.5 1 g cfu/mL"}, {"measurement": "reduction in 24 h", "setting": "[1]; [4]", "value": "5.5 1 g cfu/mL"}, {"measurement": "reduction in 3 h", "setting": "[1]; [5]", "value": "3.3-4.0 1 g cfu/mL"}, {"measurement": "reduction in 24 h", "setting": "[1]; [5]", "value": "3.7-5.5 1 g cfu/mL"}, {"measurement": "amount alone required to achieve 1 g cfu/mL reduction of 4.2", "setting": "[1]; Example 4, single agent", "value": "≥ 150", "unit": "ppm"}, {"measurement": "3 h Reduction", "setting": "[1]; [6]", "value": 1.2, "unit": "lg cfu/mL"}, {"measurement": "24 h Reduction", "setting": "[1]; [6]", "value": 5.5, "unit": "lg cfu/mL"}, {"measurement": "3 h Reduction", "setting": "[1]; [7]", "value": 3.5, "unit": "lg cfu/mL"}, {"measurement": "24 h Reduction", "setting": "[1]; [7]", "value": 5.5, "unit": "lg cfu/mL"}, {"measurement": "3 h Reduction", "setting": "[1]; [8]", "value": 4.0, "unit": "lg cfu/mL"}, {"measurement": "24 h Reduction", "setting": "[1]; [8]", "value": 4.5, "unit": "lg cfu/mL"}, {"measurement": "3 h Reduction", "setting": "[1]; [9]", "value": 4.2, "unit": "lg cfu/mL"}, {"measurement": "24 h Reduction", "setting": "[1]; [9]", "value": 3.7, "unit": "lg cfu/mL"}, {"measurement": "3 h Reduction", "setting": "[1]; [10]", "value": 3.3, "unit": "lg cfu/mL"}, {"measurement": "24 h Reduction", "setting": "[1]; [10]", "value": 5.0, "unit": "lg cfu/mL"}, {"measurement": "H2O2", "setting": "[2]; pH 6.7, 21° C., start 40 ppm sulfite + 20.0 ppm H2O2, 15 min", "value": 6.1, "unit": "ppm"}, {"measurement": "H2O2", "setting": "[2]; pH 6.7, 21° C., start 40 ppm sulfite + 20.0 ppm H2O2, 30 min", "value": 5.1, "unit": "ppm"}, {"measurement": "H2O2", "setting": "[2]; pH 6.7, 21° C., start 40 ppm sulfite + 20.0 ppm H2O2, 60 min", "value": 2.4, "unit": "ppm"}, {"measurement": "H2O2", "setting": "[2]; pH 9.0, start 40 ppm sulfite + 20.0 ppm H2O2, 5 min", "value": 16.9, "unit": "ppm"}, {"measurement": "H2O2", "setting": "[2]; pH 9.0, start 40 ppm sulfite + 20.0 ppm H2O2, 15 min", "value": 14.8, "unit": "ppm"}, {"measurement": "H2O2", "setting": "[2]; pH 9.0, start 40 ppm sulfite + 20.0 ppm H2O2, 30 min", "value": 14.7, "unit": "ppm"}, {"measurement": "H2O2", "setting": "[2]; pH 9.0, start 40 ppm sulfite + 20.0 ppm H2O2, 60 min", "value": 15.2, "unit": "ppm"}, {"measurement": "H2O2", "setting": "[2]; pH 9.0, start 40 ppm sulfite + 20.0 ppm H2O2, 120 min", "value": 13.2, "unit": "ppm"}, {"measurement": "H2O2", "setting": "[2]; pH 9.0, start 40 ppm sulfite + 20.0 ppm H2O2, 1080 min", "value": 8.1, "unit": "ppm"}, {"measurement": "Indicated Species H2O2", "setting": "[3]; 2.1 ppm H2O2 + 1.0 ppm DMH stabilized NaOCl, 1 min", "value": 2.1, "unit": "ppm"}, {"measurement": "Indicated Species H2O2", "setting": "[3]; 2.1 ppm H2O2 + 1.0 ppm DMH stabilized NaOCl, 5 min", "value": 1.9, "unit": "ppm"}, {"measurement": "Indicated Species H2O2", "setting": "[3]; 2.1 ppm H2O2 + 1.0 ppm DMH stabilized NaOCl, 60 min", "value": 2.3, "unit": "ppm"}, {"measurement": "Indicated Species H2O2", "setting": "[3]; 2.1 ppm H2O2 + 1.0 ppm NaOCl (as Cl2), 1 min", "value": 1.8, "unit": "ppm"}, {"measurement": "Indicated Species H2O2", "setting": "[3]; 2.1 ppm H2O2 + 1.0 ppm NaOCl (as Cl2), 5 min", "value": 1.8, "unit": "ppm"}, {"measurement": "Indicated Species H2O2", "setting": "[3]; 2.1 ppm H2O2 + 1.0 ppm NaOCl (as Cl2), 15 min", "value": 1.4, "unit": "ppm"}, {"measurement": "H2O2 residue", "setting": "[3]; combination of 2.1 ppm H2O2 with 1 ppm NaOCl (as Cl2), immediate", "value": "~1.6", "unit": "ppm"}]}
